Earlier results as cited in patent US20210346549A1, “Non-Contact Sanitizing Products and Elements” (Segan Industries, Inc., priority 2020, published 2021).

Assays:
[1] = test system: sporicidal, bactericidal, virulcide, and fungicidal; details: low concentrations
[2] = vaccine content versus toxic quantity
[3] = test system: bacterial spores; details: gas-aerosol concentration of 15 to 20 mg/m3, relative humidity of about 80%
[4] = test system: vegetative bacteria; details: gas-aerosol concentration of 15 to 20 mg/m3, relative humidity of about 80%
[5] = test system: coronavirus 229E; details: 1-minute contact time; free chlorine concentration of 1,000 ppm and 5,000 ppm

SMILES: CC(=O)OO [Peracetic acid]
- concentration at which sporicidal, bactericidal, virulcide, and fungicidal [1]: < 0.3%

SMILES: C=O [formaldehyde]
- quantity present in vaccines lower than that necessary to induce toxicity in experimental animals [2]: at least 600 fold

SMILES: O=CCCCC=O [glutaraldehyde]
- decimal reduction time [3]: less than 45 min
- decimal reduction time [4]: less than 5 min

SMILES: OCl [sodium hypochlorite]
- virucidal efficacy against coronavirus 229E [5]: effective
